The results in this text go back to ChEMBL document CHEMBL1155572, “Sesquiterpene quinols/quinones from the Micronesian sponge Petrosaspongia metachromia” (J Nat Prod, 2000).

By LC50 is commonly meant the concentration that kills 50% of the test population.

The nature of the series: Toxicity against brine shrimp. The format is organism-based. The settings on record: artemia, in vivo.

Structures are written as SMILES. In brackets after ≈: the same amount, converted by molar mass.

Molecule `COC(=O)c1cc(O)c(O)c2c1[C@]1(C)CC[C@H]3C(C)(C)CCC[C@]3(C)[C@H]1C2` [PELOROL] had an LC50 of 5 µg/mL (≈ 13.4 µM).
